This note sets out measurements from article PMC11447909, “Substrate Specificity of a Methyltransferase Involved in the Biosynthesis of the Lantibiotic Cacaoidin” (Biochemistry, 2024).

Bridge positions count the residues as written; N and C are the ends. Square brackets hold non-standard residues; d marks the D form. Ends that are not written are not given here. Abu = CC[C@H](N)C(=O)O; Dhb = C/C=C(\N)C(=O)O; Dha = C=C(N)C(=O)O

Assay [1] addresses His6-CaoSC (methyltransferase of the cacaoidin biosynthetic gene cluster) (Streptomyces cacaoi CA-170360). Put plainly: SEC; analytical SEC of purified His6-tagged CaoSC. On the technique in general: Size exclusion chromatography separates by hydrodynamic size, large species first.
Assay [2] deals with CaoSC. Put plainly: In vitro methylation by His6-CaoSC with SAM (MALDI-TOF MS). Type of assay: biochemical, Streptomyces cacaoi CA-170360. The conditions noted are these: 50 μM peptide, 5 μM His6-CaoSC, 1 mM SAM, 20 mM HEPES pH 7.5, overnight, 37 °C. The procedure:
For methylation, the 50 μL assay contained 50 μM peptide, 5 μM His6–CaoSC, and 1 mM SAM in 20 mM HEPES buffer (pH 7.5). After overnight reaction at 37 °C, the proteins were denatured by adding 5 μL of 2% TFA and centrifuged for 10 min at 4500 rpm in a microcentrifuge at room temperature. The supernatant was desalted using an EMD Millipore C18 ziptip, and the peptide was eluted and analyzed by MALDI-TOF MS as described above.

As for “His6-CaoSC (methyltransferase of the cacaoidin biosynthetic gene cluster) (enzyme)”, the stoichiometry N in assay [1] turned out to be 2.

Turning to “nisin (I[Dhb]AI[Dha]LC[Abu]PGCK[Abu]GALMGCNMK[Abu]A[Abu]CHCSIHV[Dha]K; thioether 8-11, 13-19, 23-26, 25-28, 3-7; not fully specified (residues 7, 11, 19, 26, 28); UniProt P13068 24-57, looked up) [class I lanthipeptide, 34 residues, three dehydroamino acids, five Lan/MeLan rings; purchased from Sigma-Aldrich]”, the “methylation by CaoSC (number of methyl groups installed at N-terminus)” value in assay [2] is listed as “monomethylated”.

“A[Dha]APATIK [synthetic 8-residue peptide with a dehydroamino acid at position 2]”: the “methylation by CaoSC (number of methyl groups installed at N-terminus)” value in assay [2] is “not accepted”.

Usually stoichiometry N stands for the number of molecules, sites or subunits per partner or assembly.
